Assays:
Format in all cases: in vivo, human
[1] = system: phosphorylated STAT3 (p-STAT3); experiment: Immunohistochemistry of CRC patient tumor tissue for p-STAT3; details: 100 mg/kg QD (single daily dosage), FIG. 3A
Procedure: (§1) CRC patient's archival tumor tissue samples were analyzed through immunohistochemistry (IHC) using labeled antibodies against phosphorylated STAT3 (p-STAT3). […] For instance, 40% of the patients with high p-STAT3 levels before treatment survived longer than 100 weeks whereas only 10% of those with low or no p-STAT3 levels before treatment survived beyond 100 weeks. This further confirms that the Compound of the Invention downregulates that STAT3 pathway, and that the STAT3 pathway is implicated in colorectal cancers.

[2] = Phase I dose escalation trial: safety, tolerability, adverse events; details: Phase 1, dose escalated from 20 mg to 2000 mg/day
Excerpt: The most common adverse events were: diarrhea, nausea, and fatigue. Grade 3 or greater events include: fatigue and diarrhea.

colorectal cancer (CRC) = experiment: Survival of treated CRC patients by biomarker status or exposure
Excerpt: FIG. 6A depicts the relationship between Progression Free Survival (PFS) and exposure of a Compound of the Invention in colorectal cancer (CRC) patients. […] FIG. 6B depicts the overall survival (OS) in evaluable CRC patients. OS of evaluable CRC patients treated with a Compound of the Invention (defined as ≥4 weeks of Compound of the Invention, 80% compliance) compared with historical controls [Cetuximab for the treatment of colorectal cancer, 2007, N. Engl. J. Med. 357 2040-2048]. FIG. 6C depicts PFS in evaluable CRC patients. PFS of evaluable CRC patients treated with a Compound of the Invention (defined as ≥4 weeks of Compound of the Invention, 80% compliance) compared historical controls (Open-Label Phase III Trial of Panitumumab Plus Best Supportive Care Compared with Best Supportive Care Alone in Patients with Chemotherapy-Refractory Metastatic Colorectal Cancer, 2007, J. Clin. Onc. 25: 1658-1665].
Understanding the clinical relevance of the cancer stemness markers and identifying their predictive response to the Compound of the Invention is used herein to assist clinical development by selecting patients that will most likely to derive clinical benefit. In some embodiments, the methods provided herein use one or more well-known cancer stemness marker(s), such as, for example, the expression of p-STAT3 and/or other cancer stem cell related proteins such as β-catenin and NANOG. All these proteins can be easily detected using any of a variety of art-recognized techniques. In some embodiments, the cancer sternness marker is detected with immunohistochemistry with antibodies. Using the archival tissue samples collected from the phase I trial with the Compound of the Invention, the patient response to the Compound of the Invention was analyzed based on biomarker status. […] A significant improvement in survival was detected for patients with nuclear β-Catenin localization compared with patients having β-catenin localized to the cell membrane, HR=0.043, p value <0.001. As further evidence, in an in vitro study screening a panel of cancer cells, the cell lines with nuclear β-Catenin show a lower IC50 for the Compound of the Invention. […] Thus, STAT3 activation is involved in nuclear β-catenin regulation. In addition, β-catenin status is a biomarker for predicting responsiveness of CRC patients to the Compound of the Invention.
as §1
CRC patient's archival tumor tissue samples were analyzed through immunohistochemistry (IHC) using labeled antibodies against β-catenin. […] For instance, close to 40% of the patients with high nuclear β-catenin levels before treatment survived longer than 100 weeks whereas none of those with high levels of membranous β-catenin survived beyond 25 weeks. This further confirms that the Compound of the Invention disrupts or somehow modulates the β-catenin function, and that the β-catenin pathway is implicated in colorectal cancers.

[3] = Phase I dose escalation trial: pharmacokinetic profile
[4] = human, plasma, oral, 20 mg, Total Daily Dose 20 (mg), qd, patient plasma

CC(=O)c1cc2c(o1)C(=O)c1ccccc1C2=O [Compound 1, 2-acetylnaphtho[2,3-b]furan-4,9-dione]
p-STAT3 in the patient tissue after treatment (IHC) [1]: almost no longer any detectable p-STAT3
maximum tolerated dose (MTD) [2]: not reached
patients surviving beyond 25 weeks (colorectal cancer (CRC); CRC patients (N=13) with high levels of membranous β-catenin): none
patients surviving longer than 100 weeks (colorectal cancer (CRC); CRC patients (N=13) with high nuclear β-catenin levels before treatment): ~40%
patients surviving longer than 100 weeks (colorectal cancer (CRC); CRC patients (N=13) with high p-STAT3 levels before treatment): 40%
patients surviving beyond 100 weeks (colorectal cancer (CRC); CRC patients (N=13) with low or no p-STAT3 levels before treatment): 10%
Progression Free Survival (PFS), plasma concentrations above 2.0 uM for greater than 4 hours versus not reaching that exposure (colorectal cancer (CRC); CRC patients, FIG. 6A): statistically significant difference
survival, high level of p-STAT3 or NANOG versus low or negative levels (colorectal cancer (CRC); CRC patients, phase I archival tissue): trend of increased survival
survival HR, nuclear β-Catenin localization versus β-catenin localized to the cell membrane (colorectal cancer (CRC); CRC patients, phase I archival tissue, p value <0.001): 0.043
clearance from the blood ([3]; 20 mg QD, humans): rapidly cleared from the blood
concentration of the compound in urine of the patient ([3]; 20 mg daily administration): surprisingly high concentration
AUC [3, 4]: 2.7 µM·h
Cmax [3, 4]: 490 nM
AUC ([3]; human, plasma, oral, 40 mg, Total Daily Dose 40 (mg), qd, patient plasma): 3.62 µM·h
AUC ([3]; human, plasma, oral, 80 mg, Total Daily Dose 80 (mg), qd, patient plasma): 13.3 µM·h

Source: patent US10543189B2, “2-acetylnaphtho[2,3-b]furan -4,9-dione for use on treating cancer” (Boston Biomedical, Inc., priority 2013, dated 2020)
